# Key:
# [1] = physical stability of solid-state forms at ambient temperatures; type: physicochemical; conditions: compared with the other solid-state forms of Compound 1
# Description: In one embodiment, the invention comprises the Form I polymorph of Compound 1. […] Similarly, selection of a solid-state form of Compound 1 that is physically stable over a wide range of storage conditions (especially considering the different possible storage conditions that can occur during the lifetime of a Compound 1 product) can help avoid polymorphic or other degradative changes in the Compound 1 that can lead to product loss or deterioration of product efficacy.
# [2] = slurry conversion of dihydrate crystals to Form I polymorph in tetrahydrofuran/water; type: physicochemical; conditions: 80:20 tetrahydrofuran/water mixture (volume basis), 25° C.
# Experimental: The dihydrate crystalline form of Compound 1 also can be prepared, for example, by slurry conversion of the Form II polymorph in a tetrahydrofuran/water mixture. A sufficient amount of the Form II polymorph is added to an 80:20 tetrahydrofuran/water mixture (volume basis) to form a saturated solution at 25° C. The solution then spontaneously desaturates by precipitating dihydrate crystals. Once precipitated, the dihydrate crystals eventually convert to the more thermodynamically stable Form I polymorph.
SMILES,physical stability at ambient temperatures [1],time before conversion to the more thermodynamically stable Form I polymorph [2]
"O=C(CO)N1CCC(c2[nH]nc(-c3ccc(Cl)cc3)c2-c2ccncn2)CC1 [Form I polymorph, N-(2-hydroxyacetyl)-5-(4-piperidyl)-4-(4-pyrimidinyl)-3-(4-chlorophenyl)pyrazole]",greater physical stability at ambient temperatures than the other solid-state forms of Compound 1,
"O=C(CO)n1nc(-c2ccc(Cl)cc2)c(-c2ccncn2)c1C1CCNCC1 [dihydrate crystalline form, N-(2-hydroxyacetyl)-5-(4-piperidyl)-4-(4-pyrimidinyl)-3-(4-chlorophenyl)pyrazole]",,does not take place for about four days
